The values below come from US9913836B2, “Anticholinergic neuroprotective composition and methods” (priority 2012, dated 2018).

Values joined by “and” are separate entries in the source; they are usually repeats but may differ in a detail not shown here. Equal values may be shown once. “Also recorded” adds a separate entry of the source.

The conditions of series [1]: in vivo; cited from earlier work.
The conditions of series [2]: solifenacin 10 mg versus placebo.
Method: Safety and tolerability were evaluated based on subject reports, physician observations and examinations, and the performance of standard laboratory tests.
The test system of a further series is Tg2576 mouse model of AD. To be noted: in vivo; cited from earlier work.
The nature of series [3]: Single-blind crossover study in healthy volunteers: maximum tolerated dose and adverse events of rivastigmine given with placebo or active trospium. The class given is in vivo, human. On the procedure: (§1) In this single-blind crossover study, healthy volunteers were hospitalized at a Phase I Center (Forenap, Rouffach, France) for the once daily oral administration of ascending doses of rivastigmine hydrogen tartrate (“rivastigmine”), (3 mg to a possible maximum of 24 mg in 3 mg increments as tolerated) together with placebo trospium and then with ascending amounts of rivastigmine (3 mg to a possible maximum of 24 mg as tolerated) together with active trospium. Placebo trospium or active trospium (at a fixed dose of 40 mg per day) were given orally once daily 3 hours before rivastigmine administration. Venous blood was collected for the measurement of plasma drug levels at their nominal peaks (approximately 1 hour after rivastigmine administration). Subjects were monitored clinically for 4 hours after drug administration or until all adverse events had subsided.

Series [4] in a line: Same study: peak plasma levels of rivastigmine given with placebo or active trospium. The format is in vivo, human. On the procedure:
as §1

The conditions of series [5]: cited from earlier work.
For series [6] the following is noted: open-label, 1.5 mg up to 6 mg twice daily, 26 weeks; no worsening of motor function; cited from earlier work.
The subject of series [7] is acetylcholinesterase / butyrylcholinesterase. As to conditions: cited from earlier work.
For series [8] the following is noted: Birks 2009; Forette 1999; cited from earlier work.
The mark [9] stands for this setting: subject (c), dose above tolerated dose.

As to `O=C(O[C@H]1C[C@H]2CC[C@@H](C1)[N+]21CCCC1)C(O)(c1ccccc1)c1ccccc1` [Trospium, 3-(2-hydroxy-2,2-diphenylacetoxy)-spiro[bicyclo[3.2.1]octane-8,1′-pyrrolidin]-1′-ium], the “Average plasma half-life of the absorbed amount” value in [1] is reported as “about 18 hours”.

With `COc1cc2c(cc1OC)C(=O)C(CC1CCN(Cc3ccccc3)CC1)C2` (racemic) [donepezil, (±)-2,3-dihydro-5,6-dimethoxy-2-[[1-(phenylmethyl)-4-piperidinyl]methyl]-1H-inden-1-one], the “Adverse events at the tolerated donepezil dose given with placebo solifenacin” value (individual subjects, donepezil 5 mg (a, b, c, f), 15 mg (d), 30 mg (e)) was “no adverse events; also recorded: severe abdominal pain, weakness, moderate anorexia, sweating and dry mouth; also recorded: moderate weakness, mild dizziness and moderate hypersalivation”. The “Adverse events at the tolerated donepezil dose given with 10 mg of solifenacin” value (individual subjects, donepezil 10 mg (a, f), 15 mg (b, d), 5 mg (c), 40 mg (e)) is “moderate nausea and moderate dizziness; also recorded: no adverse events; also recorded: moderate abdominal pain and severe headache”. Also, the “Subjects in whom solifenacin co-treatment enabled substantially higher daily doses of donepezil” value (solifenacin 10 mg versus placebo) is reported as 4 out of 6. Further, under setting [9], the “Adverse events with 10 mg of donepezil and placebo solifenacin” value was “severe anorexia, nausea, retching, vomiting, weakness, headache, moderate diarrhea, and mild sweating, dizziness, somnolence, hypersalivation, muscular cramps”; the “Adverse events with 10 mg of donepezil given with 10 mg of solifenacin” value is “severe nausea and retching”. Also, the “Increase of the donepezil MTD after donepezil/solifenacin combination” value (the other subjects (a), (b), (e), (f)) was 33-300%. Also, the “Increase of peak donepezil levels with combined therapy” value in series [2] is listed as roughly 2.6 fold. Also, in the series on Tg2576 mouse model of AD, the “A-beta deposition in Tg2576 mice” value is listed as “did not affect”; the “Effect on A-beta and synaptic density parameters at lower doses” value is on record as “not effective”; the “Learning and memory functions in Tg2576 mice” value was “improved”; the “Synaptic density in the molecular layer of the dentate gyrus” value is reported as “significantly increased”.

Regarding `CCN(C)C(=O)Oc1cccc([C@H](C)N(C)C)c1` [rivastigmine, (S)—N-Ethyl-N-methyl-3-[1-(dimethylamino)ethyl]-phenyl carbamate], in series [3] (individual healthy volunteers (a)-(c), once daily oral ascending doses 3 to 24 mg, placebo trospium 3 hours before), the “Tolerated dose of rivastigmine given with placebo trospium” value was 9 mg and 15 mg. In addition, in [3] (individual healthy volunteers (a)-(c), once daily oral ascending doses 3 to 24 mg, trospium 40 mg oral 3 hours before), the “Tolerated dose of rivastigmine given with 40 mg of trospium” value was 24 mg and 18 mg. Besides, the “Adverse events at the tolerated rivastigmine dose given with placebo trospium” value in series [3] (individual subjects, rivastigmine 9 mg (a), 15 mg (b, c)) was “moderate nausea and mild somnolence; also recorded: mild dry mouth”. In series [3] (individual subjects, rivastigmine 24 mg (a), 18 mg (b, c)), the “Adverse events at the tolerated rivastigmine dose given with 40 mg of trospium” value is “mild nausea as well as abdominal pain, headache and respiratory difficulty in addition to moderate anorexia; also recorded: mild dry mouth and moderate urinary difficulty”. The “Tolerated rivastigmine dose with 40 mg trospium as multiple of the maximum recommended single oral dose (6 mg)” value in series [3] (subject (a): 4, subjects (b) and (c): 3) was 4 times and 3 times. Moreover, in series [4] (88 ng/ml versus 30.7 ng/ml), the “Average peak plasma rivastigmine with trospium relative to without trospium” value is 2.9 times. The “Average peak plasma rivastigmine with trospium relative to literature value” in series [4] (88 ng/ml versus about 12 ng/ml reported) is roughly 7.3 times. The “Average peak plasma concentration of rivastigmine given without trospium” value in series [4] (average of 2 subjects) was 30.7 ng/mL. In addition, in series [4] (venous blood about 1 hour after 15 mg rivastigmine, individual subjects (b), (c)), the “Peak plasma (maximum tolerated) concentration of rivastigmine given with placebo trospium” value is 53 ng/mL and 8.3 ng/mL. Moreover, the “Peak plasma (maximum tolerated) concentration of rivastigmine given with 40 mg of trospium” value in [4] (venous blood about 1 hour after rivastigmine 24 mg (a) or 18 mg (b, c), individual subjects) is 39 ng/mL and 94 ng/mL and 131 ng/mL. Also, the “Benefits on cognitive and global measures relevant to dementia” value in [5] (patients with dementias of the Alzheimer type) was “small, but statistically significant, benefits”. Moreover, the “Cognitive improvement in patients with Alzheimer's disease on doubling the dose” value in series [5] (skin patches instead of immediate release tablets, without increasing side effects) is listed as “significantly increased the amount of cognitive improvement”. Moreover, the “Cognitive functions in PD patients with dementia” value in series [6] is “may improve the cognitive functions”. Further, in [7], the “Affinity / selectivity for acetylcholinesterase versus butyrylcholinesterase” value is “inhibits both enzymes with similar affinity”. Further, the “Reported average maximum tolerated single oral dose of rivastigmine” value in series [8] is on record as “about 4.5 mg”.
